Measured values published in article PMC12892976, “Alkylation-based optimization of antifungal FPPS inhibitors yields a potent, broad-spectrum lipophilic zoledronate derivative” (mBio, 2025).
≈ marks a conversion by molar mass, not a printed value.

Experiments:
[1] = test system: Mucor circinelloides; assay: MIC broth microdilution (CLSI); type: cell-based; settings: Mucor circinelloides 80-14-240-5007
Method: (§2) Antifungal susceptibility was determined by broth microdilution according to the CLSI guidelines described in M27-Ed4 ([16]).

[2] = test system: Rhizopus oryzae; assay: MIC broth microdilution (CLSI); type: cell-based; settings: Rhizopus oryzae 04-14-364-1703
Method: as §2

[3] = test system: Cryptococcus gattii; assay: MIC broth microdilution (CLSI); type: cell-based; settings: Cryptococcus gattii PNG27
Method: as §2

[4] = test system: Cryptococcus bacillisporus; assay: MIC broth microdilution (CLSI); type: cell-based; settings: Cryptococcus bacillisporus NIH179
Method: as §2

[5] = test system: Scedosporium apiospermum; assay: MIC broth microdilution (CLSI); type: cell-based; settings: Scedosporium apiospermum 04-16-022-2268
Method: as §2

[6] = test system: Aspergillus niger; assay: MIC broth microdilution (CLSI); type: cell-based; settings: Aspergillus niger 111
Method: as §2

[7] = test system: Aspergillus terreus; assay: MIC broth microdilution (CLSI); type: cell-based; settings: Aspergillus terreus 75-16-089-2500
Method: as §2

[8] = test system: Aspergillus lentulus; assay: MIC broth microdilution (CLSI); type: cell-based; settings: Aspergillus lentulus DTO 341-G7
Method: as §2

[9] = test system: Aspergillus parafelis; assay: MIC broth microdilution (CLSI); type: cell-based; settings: Aspergillus parafelis DTO 341-F2
Method: as §2

[10] = test system: Aspergillus frankstonensis; assay: MIC broth microdilution (CLSI); type: cell-based; settings: Aspergillus frankstonensis DTO 341-F3
Method: as §2

[11] = test system: Nannizzia gypsea; assay: MIC broth microdilution (CLSI); type: cell-based; settings: Nannizzia gypsea R-131
Method: as §2

[12] = test system: Trichophyton interdigitale; assay: MIC broth microdilution (CLSI); type: cell-based; settings: Trichophyton interdigitale R-234
Method: as §2

[13] = test system: Cryptococcus gattii; assay: checkerboard drug interaction (FICI, MICc); type: cell-based;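 also: simplified diagonal checkerboard screen pairing antifungals with FPPS inhibitors, FICI computed under the Loewe additivity model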
Method: (§3) Drug interactions between antifungals and FPPS inhibitors were investigated using a simplified checkerboard diagonal screening method ([45]). […] FICIs were determined according to the Loewe additivity model ([17]).

[14] = test system: Cryptococcus deneoformans; assay: checkerboard drug interaction (FICI, MICc); type: cell-based;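 also: simplified diagonal checkerboard screen pairing antifungals with FPPS inhibitors, FICI calculated under the Loewe additivity model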
Method: as §3

[15] = test system: Candida parapsilosis; assay: checkerboard drug interaction (FICI, MICc); type: cell-based;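 also: simplified diagonal checkerboard screen pairing antifungals with FPPS inhibitors, with FICI computed under the Loewe additivity model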
Method: as §3

[16] = test system: Aspergillus niger; assay: checkerboard drug interaction (FICI, MICc); type: cell-based;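 also: simplified diagonal checkerboard screen pairing antifungals with FPPS inhibitors, FICI calculated under the Loewe additivity model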
Method: as §3

[17] = test system: Trichophyton tonsurans; assay: checkerboard drug interaction (FICI, MICc); type: cell-based;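 also: simplified diagonal checkerboard screen combining antifungals with FPPS inhibitors, with FICI calculated under the Loewe additivity model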
Method: as §3

[18] = test system: Trichophyton soudanense; assay: checkerboard drug interaction (FICI, MICc); type: cell-based;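 also: simplified diagonal checkerboard screen pairing antifungals with FPPS inhibitors, FICI computed under the Loewe additivity model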
Method: as §3

[19] = test system: Saccharomyces cerevisiae biofilms; assay: biofilm XTT reduction assay (SIC80, SFICI); type: cell-based
Method: (§4) Biofilms of Cryptococcus were seeded in DMEM, and all other species were seeded in RPMI-1640.

[20] = test system: Aspergillus flavus biofilms; assay: biofilm XTT reduction assay (SIC80, SFICI); type: cell-based
Source text: (§1) […]. […] […].

[21] = test system: Aspergillus fumigatus biofilms; assay: biofilm XTT reduction assay (SIC80, SFICI); type: cell-based
Source text: as §1

[22] = test system: Candida glabrata biofilms; assay: biofilm XTT reduction assay (SIC80, SFICI); type: cell-based
Source text: as §1

[23] = test system: Trichophyton rubrum biofilms; assay: biofilm XTT reduction assay (SIC80, SFICI); type: cell-based; settings: biofilm
Method: as §4

[24] = test system: Fusarium solani; assay: MIC broth microdilution (CLSI); settings: Fusarium solani 04-16-056-1862
Method: as §2

[25] = test system: Trichophyton soudanense; assay: MIC broth microdilution (CLSI); settings: Trichophyton soudanense R-167
Method: as §2

[26] = test system: Aspergillus frankstonensis; assay: checkerboard drug interaction (FICI, MICc);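 also: simplified diagonal checkerboard screen pairing antifungals with FPPS inhibitors, FICI calculated using the Loewe additivity model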
Method: as §3

[27] = test system: Epidermophyton floccosum; assay: checkerboard drug interaction (FICI, MICc);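 also: simplified diagonal checkerboard screen pairing antifungals with FPPS inhibitors, FICI calculated under the Loewe additivity model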
Method: as §3

[28] = test system: Trichophyton interdigitale; assay: checkerboard drug interaction (FICI, MICc);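 also: simplified diagonal checkerboard screen pairing antifungals with FPPS inhibitors, FICI values calculated under the Loewe additivity model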
Method: as §3

[29] = test system: Candida albicans biofilms; assay: biofilm XTT reduction assay (SIC80, SFICI)
Method: as §4

[30] = test system: Cryptococcus neoformans biofilms; assay: biofilm XTT reduction assay (SIC80, SFICI)
Method: as §4

[31] = test system: Cryptococcus deuterogattii biofilms; assay: biofilm XTT reduction assay (SIC80, SFICI)
Method: as §4

`CCC(C)n1ncn(-c2ccc(N3CCN(c4ccc(OCC5COC(Cn6cncn6)(c6ccc(Cl)cc6Cl)O5)cc4)CC3)cc2)c1=O` (centres unmarked) [ITR, itraconazole] was tested. Which “MIC / MEC” value [1] did it give?
The value was 0.5 mg/L (≈ 0.709 µM).

And the “MIC / MEC” value [2]?
Its value is 2 mg/L (≈ 2.83 µM).

And the “MIC / MEC” value [3]?
Its value is 0.25 mg/L (≈ 0.354 µM).

And the “MIC / MEC” value [4]?
Its value is 0.06 mg/L (≈ 0.085 µM).

And the “MIC / MEC” value [5]?
Its value is 8 mg/L (≈ 11.3 µM).

And the “MIC / MEC” value [6]?
Its value is 2 mg/L (≈ 2.83 µM).

What about the “MIC / MEC” value [7] of the same molecule?
The value was 0.5 mg/L (≈ 0.709 µM).

And the “MIC / MEC” value [8]?
Its value is 2 mg/L (≈ 2.83 µM).

What about the “MIC / MEC” value [9] of the same molecule?
Its value is 8 mg/L (≈ 11.3 µM).

And the “MIC / MEC” value [10]?
The value was 2 mg/L (≈ 2.83 µM).

What about the “MIC / MEC” value [11] of the same molecule?
The value was 2 mg/L (≈ 2.83 µM).

And the “MIC / MEC” value [12]?
Its value is 1 mg/L (≈ 1.42 µM).

What about the “antifungal MICc” value ([13]; in combination with 10-ZOL) of the same molecule?
Its value is 0.125.

What about the “antifungal MICc” value ([13]; in combination with ZOL) of the same molecule?
The value was 0.125.

What about the “antifungal MICc” value ([14]; in combination with 10-ZOL) of the same molecule?
Its value is 0.063.

And the “antifungal MICc” value ([14]; in combination with ZOL)?
The value was 0.125.

And the “antifungal MICc” value ([15]; in combination with 10-ZOL)?
Its value is 0.125.

And the “antifungal MICc” value ([15]; in combination with ZOL)?
The value was 0.062.

And the “antifungal MICc” value ([16]; in combination with 10-ZOL)?
Its value is 0.25.

What about the “antifungal MICc” value ([16]; in combination with ZOL) of the same molecule?
Its value is 1.

And the “antifungal MICc” value ([17]; in combination with 10-ZOL)?
The value was 0.25.

What about the “antifungal MICc” value ([17]; in combination with ZOL) of the same molecule?
Its value is 0.25.

And the “antifungal MICc” value ([18]; in combination with 10-ZOL)?
The value was 0.25.

What about the “antifungal MICc” value ([18]; in combination with ZOL) of the same molecule?
Its value is 0.25.

What about the SICc ([19]; ITR:10-ZOL combination, Saccharomyces cerevisiae) of the same molecule?
Its SICc is 16 µg/mL.

What about the SIC80 ([19]; agent alone, Saccharomyces cerevisiae S288c) of the same molecule?
Its SIC80 is 32 µg/mL.

And the SICc ([20]; ITR:10-ZOL combination, Aspergillus flavus)?
The SICc was 64 µg/mL.

What about the SIC80 ([20]; agent alone, Aspergillus flavus ATCC 204304) of the same molecule?
Its SIC80 is 128 µg/mL.

What about the SICc ([21]; ITR:10-ZOL combination, Aspergillus fumigatus) of the same molecule?
Its SICc is 128 µg/mL.

What about the SIC80 ([21]; agent alone, Aspergillus fumigatus ATCC 204305) of the same molecule?
The SIC80 was 256 µg/mL.

And the SICc ([22]; ITR:10-ZOL combination, Candida glabrata)?
The SICc was 128 µg/mL.

And the SIC80 ([22]; agent alone, Candida glabrata CBS138)?
The SIC80 was 256 µg/mL.

And the SICc ([23]; ITR:10-ZOL combination, Trichophyton rubrum)?
Its SICc is 64 µg/mL.

What about the SIC80 ([23]; agent alone, Trichophyton rubrum 213) of the same molecule?
Its SIC80 is greater than 256 µg/mL.

And the “MIC / MEC” value [24]?
Its value is 2 mg/L (≈ 2.83 µM).

What about the “MIC / MEC” value [25] of the same molecule?
Its value is 0.5 mg/L (≈ 0.709 µM).

And the “antifungal MICc” value ([26]; in combination with 10-ZOL)?
The value was 1.

What about the “antifungal MICc” value ([26]; in combination with ZOL) of the same molecule?
The value was 2.

What about the “antifungal MICc” value ([27]; in combination with 10-ZOL) of the same molecule?
Its value is 0.5.

What about the “antifungal MICc” value ([27]; in combination with ZOL) of the same molecule?
Its value is 0.5.

What about the “antifungal MICc” value ([28]; in combination with 10-ZOL) of the same molecule?
Its value is 0.5.

And the “antifungal MICc” value ([28]; in combination with ZOL)?
The value was 0.25.

What about the SICc ([29]; ITR:10-ZOL combination, Candida albicans) of the same molecule?
Its SICc is 128 µg/mL.

And the SIC80 ([29]; agent alone, Candida albicans SC5314)?
The SIC80 was 256 µg/mL.

And the SICc ([30]; ITR:10-ZOL combination, Cryptococcus neoformans)?
The SICc was 32 µg/mL.

And the SIC80 ([30]; agent alone, Cryptococcus neoformans H99)?
Its SIC80 is 64 µg/mL.

And the SICc ([31]; ITR:10-ZOL combination, Cryptococcus deuterogattii)?
Its SICc is 64 µg/mL.

And the SIC80 ([31]; agent alone, Cryptococcus deuterogattii R265)?
The SIC80 was 128 µg/mL.

What does the source list for `C[C@@H](c1ncncc1F)[C@](O)(Cn1cncn1)c1ccc(F)cc1F` [VOR]?
MIC / MEC [1]: 8 mg/L (≈ 22.9 µM); MIC / MEC [2]: 16 mg/L (≈ 45.8 µM); MIC / MEC [3]: 0.06 mg/L (≈ 0.172 µM); MIC / MEC [4]: 0.06 mg/L (≈ 0.172 µM); MIC / MEC [5]: 1 mg/L (≈ 2.86 µM); MIC / MEC [6]: 1 mg/L (≈ 2.86 µM); MIC / MEC [7]: 0.25 mg/L (≈ 0.716 µM); MIC / MEC [8]: 4 mg/L (≈ 11.5 µM); MIC / MEC [9]: 8 mg/L (≈ 22.9 µM); MIC / MEC [10]: 2 mg/L (≈ 5.73 µM); MIC / MEC [11]: 0.25 mg/L (≈ 0.716 µM); MIC / MEC [12]: 0.25 mg/L (≈ 0.716 µM); antifungal MICc ([13]; in combination with 10-ZOL): 0.033; antifungal MICc ([13]; in combination with ZOL): 0.06; antifungal MICc ([14]; in combination with 10-ZOL): 0.063; antifungal MICc ([14]; in combination with ZOL): 0.0625; antifungal MICc ([15]; in combination with 10-ZOL): 0.063; antifungal MICc ([15]; in combination with ZOL): 0.125; antifungal MICc ([16]; in combination with 10-ZOL): 0.13; antifungal MICc ([16]; in combination with ZOL): 1; antifungal MICc ([17]; in combination with 10-ZOL): 0.063; antifungal MICc ([17]; in combination with ZOL): 0.0625; antifungal MICc ([18]; in combination with 10-ZOL): 0.063; antifungal MICc ([18]; in combination with ZOL): 0.03125; MIC / MEC [24]: 1 mg/L (≈ 2.86 µM); MIC / MEC [25]: 0.13 mg/L (≈ 0.372 µM); antifungal MICc ([26]; in combination with 10-ZOL): 4; antifungal MICc ([26]; in combination with ZOL): 2; antifungal MICc ([27]; in combination with 10-ZOL): 0.032; antifungal MICc ([27]; in combination with ZOL): 0.25; antifungal MICc ([28]; in combination with 10-ZOL): 0.063; antifungal MICc ([28]; in combination with ZOL): 0.0625
